Experiments:
UHRF1-TTD = target: T1, UHRF1-TTD (Homo sapiens, UniProt Q96T88); assay: Thermal shift assay (TSA) of TTD; format: binding; conditions: for TSA (ΔTm) at 500 μM / ΔTm at 500 µM: compound at 500 μM, untagged TTD, 150 mM NaCl, mean ± S.D., n=3; for ΔTm at 200 µM: fragment screen, His6-TTD, final compound concentration 200 µM, 300 mM NaCl, read-out: ThermoFluor (ΔTm), fragment screen
T1 construct: Using the isolated His6-TTD (aa 123–283) we performed a thermal shift assay; His6 (N, cleaved yes); made in house; host or cells: Rosetta (DE3) E. coli, pMCSG7
T1 sequence (Q96T88 123-283): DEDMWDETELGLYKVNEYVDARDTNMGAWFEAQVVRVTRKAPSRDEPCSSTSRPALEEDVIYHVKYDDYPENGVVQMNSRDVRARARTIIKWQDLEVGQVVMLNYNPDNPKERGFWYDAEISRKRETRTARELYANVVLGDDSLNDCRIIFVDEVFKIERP
Description: We used three different assays in parallel to screen a ~ 2300-fragment library to identify hits that bind to TTD or inhibit its activities. The first screening method was a direct binding assay, which generally serves as the basis for most fragment screening. Using the isolated His6-TTD (aa 123–283) we performed a thermal shift assay (TSA) to determine the change in melting temperature upon fragment binding. The change in protein melting temperature (ΔTm) caused by each fragment was calculated by comparison to the DMSO controls on the same plate.
The fragment screen was carried out on LightCycler 480 Multiwell Plates 384 (Roche). The TSA mix contains 0.15 mg/ml of His6-TTD, 10 × of SYPRO Orange dye (ThermoFisher) in the TSA buffer (50 mM sodium phosphate, pH = 7, 300 mM NaCl). During the screen, 5 µl of TSA mix was dispensed into each well, and 100 nl of chemical fragments stock (10 mM in DMSO) was added to each well by pintool using Tecan Freedom Evo liquid handler to make the final compound concentration 200 µM. After 1 h of incubation at room temperature, the increase of fluorescence at 580 nm (excitation 465 nm) during the 20–90 degree melting (0.04 °C/s) was measured by LightCycler 480 Instrument II (Roche). For the fragment screen, on seven of the library plates there were 32-wells of DMSO control, while there were 8-wells of DMSO control in the last plate. […] Using un-tagged TTD for TSA provide closer resemblance to the native state of TTD. The lower salt concentration (150 mM NaCl) also allowed better comparison across three different assays during the dose-dependent SAR studies as both AlphaScreen and TR-FRET assay also use buffers containing 150 mM NaCl.

[1] = target: T2, His6-TTD (UHRF1 tandem Tudor domain) vs. H3K9me3 peptide (Homo sapiens, UniProt Q96T88); assay: TR-FRET assay: His6-TTD interaction with H3K9me3 peptide; format: biochemical; conditions: EC50 ± S.E.M., n=3; highest concentration tested 1 mM
T2 construct: Using the isolated His6-TTD (aa 123–283) we performed a thermal shift assay; made in house; host or cells: Rosetta (DE3) E. coli, pMCSG7
T2 sequence (Q96T88 123-283): T1 sequence (Q96T88 123-283)
Description: Finally, the fragment library was screened using a TR-FRET assay to find inhibitors that block the interaction of His6-TTD with H3K9me3 peptide. In this assay, an anti-His6-antibody labeled with Tb cryptate binds to His6-TTD while a streptavidin-d2 acceptor binds to a biotinylated histone H3K9me3 peptide. The binding between His6-TTD and H3K9me3 peptide was measured by the ratio of 665 nm fluorescence (from the d2 acceptor) to 620 nm fluorescence (from the Tb cryptate donor) (Fig. 1D).
The fragment screen was carried out on low volume 384-well white plates (Corning 4512) and the assay was performed at room temperature. […] After 1 h of incubation, the fluorescent signals at 665 nm and 620 nm of each plate were measured by the Tecan Infinite M1000 plate reader (excitation 340 nm, 60 µs lag time, and 500 µs integration time) and the TR-FRET signal was calculated by the ratio of 665 nm/620 nm fluorescent signal. For the fragment screen, on seven of the library plates there were 32-wells of DMSO control, while there were 8-wells of DMSO control in the last plate. […] The only difference was that the final concentration of His6-TTD-PHD was 200 nM, biotin-H3K9me3 peptide was 200 nM for the His6-TTD-PHD TR-FRET assay, while the final concentration of His6-UHRF1-FL was 200 nM and biotin-H3K9me3 peptide was 100 nM for the His6-UHRF1-FL TR-FRET assay. The buffer pH was 7.5 for the His6-TTD-PHD and His6-UHRF1-FL assays.

N-UHRF1 vs. C-UHRF1 = target: T3, N-UHRF1 vs. C-UHRF1 (Homo sapiens, UniProt Q96T88); assay: AlphaScreen assay: N-UHRF1 interaction with C-UHRF1 (TTD:PBR); format: biochemical; conditions: for EC50 / AlphaScreen (N-UHRF1 vs. C-UHRF1) EC50: EC50 ± S.E.M., n=3, highest concentration tested 1 mM; for inhibition of N-UHRF1:C-UHRF1 interaction by peptide (in words): peptide (1-20) at 50 µM (Fig. S1)
T3 construct: biotinylated-AviTag-N-UHRF1 (containing UBL and TTD, aa 1–285); made in house; host or cells: Rosetta (DE3) E. coli; pMCSG51 (N-UHRF1), pMCSG7 (FLAG-C-UHRF1)
T3 sequence (Q96T88 1-285): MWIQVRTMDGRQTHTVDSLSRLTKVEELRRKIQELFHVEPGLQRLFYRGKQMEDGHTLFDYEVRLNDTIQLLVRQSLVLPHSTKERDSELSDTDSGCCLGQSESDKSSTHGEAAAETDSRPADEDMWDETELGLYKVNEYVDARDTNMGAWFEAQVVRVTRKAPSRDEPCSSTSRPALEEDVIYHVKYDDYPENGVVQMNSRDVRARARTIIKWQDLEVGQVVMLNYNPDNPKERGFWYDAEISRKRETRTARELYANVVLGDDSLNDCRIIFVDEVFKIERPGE
Text: We next turned our attention to screens that reported on functional effects of fragment binding to UHRF1-TTD. UHRF1 can assume two functionally distinct conformations that are favored by different intra-molecular interactions[15],[32]–[35]. UHRF1 assumes a ‘closed’ conformation with diminished E3 ligase activity when the TTD domain interacts with the internal PBR[32]–[35]. To identify compounds that block this internal TTD:PBR interaction, we developed an assay using AlphaScreen (Amplified Luminescent Proximity Homogeneous Assay, Perkin Elmer) technology that detects the interaction between biotinylated-AviTag-N-UHRF1 (containing UBL and TTD, aa 1–285) and FLAG-C-UHRF1 (containing SRA, RING E3 domains and PBR, aa 414–793) (Fig. 1A,C). […] The signal change in each well was calculated relative to DMSO controls on each plate.
The fragment screen was carried out on low volume 384-well white plates (Corning 4512) and the assay was performed at room temperature. First, 5 µl of AlphaScreen buffer (50 mM HEPES, pH = 6.5, 150 mM NaCl, 0.1% Triton X-100, 1 mM DTT) was dispensed by multidrop combi microplate dispenser (Thermo Scientific) and 300 nl of chemical fragment stock (10 mM in DMSO) was added to each well by pintool using Tecan Freedom Evo liquid handler. Next, 3 µl of AlphaScreen reagent mix containing 768 nM of Biotinylated-His-Avitag-N-UHRF1, 768 nM of FLAG-C-UHRF1, 40 µg/ml streptavidin donor beads, and 40 µg/ml Anti-FLAG conjugated acceptor beads (PerkinElmer) was added to each well by multidrop. The final concentration of FLAG-C-UHRF1 was 300 nM, Biotinylated-His-Avitag-N-UHRF1 was 300 nM, Donor/acceptor beads each was 15 µg/ml. In this assay, the biotinylated-AviTag-N-UHRF1 binds to streptavidin-coated donor beads while the FLAG-C-UHRF1 interacts with the anti-FLAG antibody-coated acceptor beads. The final compound concentration was 360 µM. After 1 h of incubation, the AlphaScreen signal of each plate was measured with a Tecan Infinite M1000 plate reader, which uses a high-power laser (680 nm, 750 mW) as the excitation light source for the donor beads and the AlphaScreen filter was used to detect the emission between 520 and 620 nm from the acceptor beads. For the dose-dependent assays for SAR, the final concentrations of N-UHRF1, C-UHRF1, donor, and acceptor beads were the same as fragment screen. The only differences were that the phosphate buffer was used (50 mM sodium phosphate, pH = 7, 150 mM NaCl, 1 mM DTT, and 0.1% Triton-X-100) and the final volume was 10 µL. For the fragment screen, on seven of the library plates there were 32-wells of DMSO control, while there were 8-wells of DMSO control in the last plate.

DNMT1-RFTS domain = target: T4, DNMT1-RFTS domain (Homo sapiens, UniProt P26358); assay: TSA against DNMT1-RFTS domain; format: binding; conditions: fragment screen
T4 construct: unrelated protein targets (USP7-UBL1/2, UHRF1-SRA domain, and DNMT1-RFTS domain)
T4 sequence (P26358 400-533 limits assumed): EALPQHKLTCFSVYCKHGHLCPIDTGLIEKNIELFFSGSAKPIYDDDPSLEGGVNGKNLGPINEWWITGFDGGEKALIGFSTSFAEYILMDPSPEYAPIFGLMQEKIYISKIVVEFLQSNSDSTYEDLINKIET
Text: (§1) F1957-0227 was identified as a hit in two other AlphaScreen assays (N-UHRF1 vs. USP7-UBL1/2 and UHRF1-SRA domain vs. DNMT1-RFTS domain) and in three TSAs against unrelated protein targets (USP7-UBL1/2, UHRF1-SRA domain, and DNMT1-RFTS domain); we concluded that F1957-0227 behaves as a pan-assay interference compound (PAINS)[53] and is thus not suitable for follow-up.

N-UHRF1 vs. USP7-UBL1/2 = assay: AlphaScreen assay N-UHRF1 vs. USP7-UBL1/2 (other screen); format: biochemical; conditions: fragment screen
Text: as §1

UHRF1-SRA domain = target: T5, UHRF1-SRA domain (Homo sapiens, UniProt Q96T88); assay: TSA against UHRF1-SRA domain; format: binding; conditions: fragment screen
T5 construct: unrelated protein targets (USP7-UBL1/2, UHRF1-SRA domain, and DNMT1-RFTS domain)
T5 sequence (Q96T88 419-582 limits assumed): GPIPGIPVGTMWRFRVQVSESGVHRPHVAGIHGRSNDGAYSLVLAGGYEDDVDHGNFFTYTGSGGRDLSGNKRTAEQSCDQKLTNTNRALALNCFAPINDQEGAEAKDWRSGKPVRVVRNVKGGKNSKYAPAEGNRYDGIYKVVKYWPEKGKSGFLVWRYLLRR
Text: as §1

[2] = target: T6, UHRF1-SRA domain vs. DNMT1-RFTS domain (Homo sapiens, UniProt P26358+Q96T88); assay: AlphaScreen assay UHRF1-SRA domain vs. DNMT1-RFTS domain (other screen); format: biochemical; conditions: fragment screen
T6 construct: UHRF1-SRA domain vs. DNMT1-RFTS domain
T6 sequence (P26358 400-533 limits assumed, one chain of several): as the sequence (P26358 400-533 limits assumed) above
Text: as §1

USP7-UBL1/2 = USP7-UBL1/2 (Homo sapiens, UniProt Q93009); assay: TSA against USP7-UBL1/2; format: binding; conditions: fragment screen
Sequence of USP7-UBL1/2 (Q93009 560-776 limits assumed): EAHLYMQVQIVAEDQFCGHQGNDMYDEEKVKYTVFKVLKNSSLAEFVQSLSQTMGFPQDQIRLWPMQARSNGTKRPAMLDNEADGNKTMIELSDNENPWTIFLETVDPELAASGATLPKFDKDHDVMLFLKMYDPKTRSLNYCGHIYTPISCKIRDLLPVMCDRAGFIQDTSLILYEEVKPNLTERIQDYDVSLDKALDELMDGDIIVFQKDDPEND
Text: as §1

Cc1cc(C)nc(C)c1 [Compound 15]
TSA (ΔTm) at 500 μM (UHRF1-TTD): 1.11 ± 0.06 °C
EC50 [1]: 47.2 ± 4.9 µM
EC50 (N-UHRF1 vs. C-UHRF1): > 500 µM

H3K9me3 peptide: histone H3 (1–20) peptide trimethylated at Lys9, TTD ligand [reference compound]
inhibition of N-UHRF1:C-UHRF1 interaction by peptide (in words) (N-UHRF1 vs. C-UHRF1): could inhibit

c1cnc2c(c1)NCCN2 [Compound 7, 1,2,3,4-tetrahydropyrido[2,3-b]pyrazine]
ΔTm at 500 µM (UHRF1-TTD): 0.19 ± 0.06 °C
EC50 [1]: > 500 µM
AlphaScreen (N-UHRF1 vs. C-UHRF1) EC50 (N-UHRF1 vs. C-UHRF1): 379.8 ± 176.0 µM

Cc1ccnc(N)c1 [Compound 8]
TSA (ΔTm) at 500 μM (UHRF1-TTD): 0.66 ± 0.09 °C
EC50 [1]: 238 ± 89.1 µM
EC50 (N-UHRF1 vs. C-UHRF1): 52.6 ± 6.9 µM

Cc1ccnc(Cl)c1 [Compound 9]
TR-FRET (TTD vs. H3K9me3) EC50 [1]: No inhibition
AlphaScreen (N-UHRF1 vs. C-UHRF1) EC50 (N-UHRF1 vs. C-UHRF1): No inhibition

Cc1cc(C)c2c(n1)NCCC2 [Compound F1957-0088]
ΔTm at 500 µM (UHRF1-TTD): 1.52 ± 0.09 °C
ΔTm at 200 µM (UHRF1-TTD): 1.74 °C

Nc1ncc(Br)c2cc[nH]c12 [Compound F1957-0227]
hit call in TSA against DNMT1-RFTS domain (DNMT1-RFTS domain): hit
hit call in AlphaScreen N-UHRF1 vs. USP7-UBL1/2 (N-UHRF1 vs. USP7-UBL1/2): hit
hit call in TSA against UHRF1-SRA domain (UHRF1-SRA domain): hit
ΔTm at 200 µM (UHRF1-TTD): 2.58 °C
hit call in AlphaScreen UHRF1-SRA domain vs. DNMT1-RFTS domain [2]: hit
hit call in TSA against USP7-UBL1/2 (USP7-UBL1/2): hit

c1cnc2c(c1)CCCC2 [Compound 6, 5,6,7,8-tetra-hydro-quinoline]
ΔTm at 500 µM (UHRF1-TTD): 0.21 ± 0.06 °C
EC50 [1]: > 500 µM
AlphaScreen (N-UHRF1 vs. C-UHRF1) EC50 (N-UHRF1 vs. C-UHRF1): 281.7 ± 227.7 µM

Cc1cc(C)nc(N)c1 [Compound 12]
TSA (ΔTm) at 500 μM (UHRF1-TTD): 1.59 ± 0.06 °C
EC50 [1]: 51.9 ± 8.1 µM
EC50 (N-UHRF1 vs. C-UHRF1): 21.3 ± 3.5 µM

H3K4me3 peptide: histone H3 (1-20) peptide trimethylated at Lys4, negative control [reference compound]
inhibition of N-UHRF1:C-UHRF1 interaction by peptide (in words) (N-UHRF1 vs. C-UHRF1): not

Cc1c(Br)cnc2c1CCCN2 [Compound 3]
TSA (ΔTm) at 500 μM (UHRF1-TTD): 0.1 ± 0.06 °C
EC50 [1]: 58.5 ± 8.4 µM
EC50 (N-UHRF1 vs. C-UHRF1): 75.7 ± 14.4 µM

c1cnc2c(c1)CCCN2 [Compound 2]
TSA (ΔTm) at 500 μM (UHRF1-TTD): 0.75 ± 0.02 °C
EC50 [1]: 109 ± 18.2 µM
EC50 (N-UHRF1 vs. C-UHRF1): 164 ± 33 µM
